Measured values: a melting point compilation (Tetko et al.; mined from patent text by program, amines drawn as free bases though some values may be those of a salt)

| SMILES | melting point [°C] |
| --- | --- |
| CCOC(=O)c1cnc2c(c(C)nc3cc(C)nn32)c1NCCCN(C)C | 73 to 75 |
| CNC(=O)Cn1c(-c2ccc(F)cc2)nc2cccnc21 | 215 to 217 |
| CCn1ncc2c(NCc3ccccc3)c3ccc(OC)cc3nc21 | 163 to 164 |
| Cc1c(SCc2ccc(-c3ccccc3)cc2)cnn(C(C)(C)C)c1=O | 112 to 115 |
| COc1cccc(C(=O)N(CC=O)c2ccccc2OC)c1 | 77 to 81 |
| CC(C)C1NC(=O)CN1C(=O)CN (stereo not given) | 141 to 143 |
| COc1cc(C(=O)c2ncc3ccc(NS(C)(=O)=O)cn23)ccc1[N+](=O)[O-] | 249 |
| O=C(CC1(O)CCC1)N[C@H]1CC[C@H](CCN2CCN(c3nccc4c3OCC4)CC2)CC1 | 155 |
| O=C(c1ccccc1)N1CCc2cc(S(=O)(=O)n3cc(-c4ccccc4)[nH]c3=O)ccc21 | 167 to 170 |
| CC1(CC(=O)O)OCCc2c1[nH]c1ccc(O)cc21 (stereo not given) | 170 to 171 |
| Cc1c(Oc2ccccc2)cccc1Oc1ccccc1 | 39 to 41 |
| Cc1cccc(C2CCCN2S(=O)(=O)c2ccc(Cl)cc2)c1 (racemic) | 78 |
| Cc1ccccc1Nc1nc(N)nc2c(C)cccc12 | 118 to 120 |
| COC(=O)c1ccc(-c2nc3ccc(C(=O)O)cc3[nH]2)cc1 | 308 to 309 |
| Cc1cc(-c2c(F)cc3c(=O)c(Cc4c(O)cccc4O)cn(C4CC4)c3c2F)cc(C)n1 | 308 to 310 |
| O=C(O)c1ccc(COCc2csc3nc(C(=O)NCc4ccccc4)[nH]c(=O)c23)cc1 | 268 to 269 |
| CN1CCN(CCCNc2ccc(Cl)cc2N)CC1 | 88 to 90 |
| O=C(NC(=O)c1ccccc1Cl)Nc1ccc(-c2ccc(Cl)cc2)cn1 | 228 to 231 |
| Cc1c(F)cccc1Cc1c(-c2ccccc2)c2cc(O)cnn2c1C(=O)N1CCNCC1 | 206 to 208 |
| O=C(O)C1C=Nc2c(ccc3cc(C(=O)N4CCc5ccccc5C4)cnc23)C1=O (stereo not given) | 171 to 182 |
| C=C1NC(=O)N(Cc2ccccc2)C1=N | 139 to 141 |
| Clc1ccc2nc(Cl)c(I)n2c1 | 234 to 235 |
| Nc1nc2ccccc2c2c1ncn2CCOCCCc1ccccn1 | 138 to 140 |
| c1cc(CN2CCOCC2)cc(-n2cnc3cc(-c4ccoc4)cnc32)c1 | 182 to 184 |
| O=C(O)Cc1c(C(=O)O)c2cc(Oc3ccc(Cl)cc3)ccc2n1-c1ccccc1 | 202 to 204 |

| SMILES | melting point [°C] |
| --- | --- |
| CN(C)C(=O)Nc1cc(C(C)(C)C)[nH]n1 | 220 to 222 |
| O=P1(c2cccc(C(F)(F)F)c2)OCc2ccccc21 (stereo not given) | 102 to 106 |
| CC(=NNC(=S)N1CCCCCC1)c1ccc2ccccc2n1 | 129 to 131 |
| COC(=O)COc1ccc(CC(C)=O)cc1 | 63 |
| CNC(=C[N+](=O)[O-])NCCCCCCCCCCCCN | 123 to 125 |
| COc1ccccc1CCC1CNC(=O)O1 (stereo not given) | 76 to 77 |
| N#CC(C#N)=CNc1cc(C(F)(F)F)ccc1Cl | 166 to 169 |
| COc1cc2c(c(Cl)c1Cl)SCC2O (stereo not given) | 122 to 124 |
| CC(C)OC(=O)N1c2cncnc2NC(=S)C1C (racemic) | 203 to 204 |
| COCc1cc(C(O)CNCCCCCCOCCc2ccc(OC)cc2)ccc1O (stereo not given) | 97.5 to 98.5 |
| CCCCn1c(=O)c2cc(C(=O)O)cn2c2cc(Cl)c(Cl)cc21 | 281 to 283 |
| FC(F)(F)n1cc(Br)cn1 | 4 |
| COc1cc(OC)c(-c2cc3ccccc3n2C)cc1C=CC(=O)c1ccc(S(=O)(=O)NO)cc1 | > 260 |
| COC(=O)c1ccc(C=CC(=O)N2CCc3c([nH]c4ccccc34)C2c2ccc3c(c2)CCO3)nc1 (stereo not given) | > 260 |
| COc1cccc(CSc2ncccc2C(=O)O)c1 | 156 to 157 |
| CC(C)=CCON1C(=O)c2ccccc2C1=O | 97 to 98 |
| COc1ccc(C2=NN(C3CCN(Cc4ccncc4)CC3)C(=O)[C@@H]3CC=CC[C@H]23)cc1OC | 196 to 197 |
| CC1(CCC(O)(c2ccccc2)c2ccccc2)CCCCC12OCCO2 (stereo not given) | 115 to 117 |
| Cc1ccccc1C(Oc1cc(OCc2cncs2)ccc1C#N)C(=O)O (stereo not given) | 226 to 227 |
| Cc1ccccc1-c1nc2ccccc2n1Cc1c(F)cccc1F | 139 |
| O=C(O)COc1ccc(CCNS(=O)(=O)c2ccccc2)cc1[N+](=O)[O-] | 135 to 136 |
| Cc1cc(C)c(Nc2nc(C)ncc2S(=O)(=O)c2ccc(NCc3ccccc3)cc2)c(C)c1 | 200 to 202 |
| O=C1NCC(c2ccc(F)cc2)N1CCCCS (stereo not given) | 102 to 104 |
| CCC1CC2=CC(O)CCC2C2CCC3(C)C(O)CCC3C12 (stereo not given) | 93 to 95 |
| COC(=O)CN1C(=O)CC1SCc1ccc(OC)cc1 (stereo not given) | 45 to 46 |

| SMILES | melting point [°C] |
| --- | --- |
| CCOC(=O)C(C1c2ccccc2Sc2ccccc21)[N+](=O)[O-] (stereo not given) | 111 to 115 |
| CCOCC1(C)CCCSc2cc(C#Cc3ccc(C(=O)O)cc3)ccc21 (stereo not given) | 154 to 155 |
| CC1=NC(C)(C)N(O)C1(C)C | 127 to 128 |
| O=C1c2ccccc2CCc2ccc(Cl)cc21 | 64 to 65 |
| COC(=O)C(C)(C)OCc1cc2nc(Cl)ccc2n1S(=O)(=O)c1ccc(C(C)C)cc1 | 120 |
| CS(=O)(=O)C(=C1CN(C(c2ccccc2)c2ccccc2)C1)c1cccc(Br)c1 | 200 |
| CCOC(=O)C1[C@H]2O[C@@H]3COC(C)(C)O[C@H]3C(=NO)[C@@H]12 (stereo not given in full) | 210 to 213 |
| CCCn1c(=O)n(Cc2ccccc2)c(=O)c2c(Cl)cc(Cl)cc21 | 90 to 93 |
| CCOC(=O)NC(C)c1ccc(O)c(C2CCCCC2)c1 (stereo not given) | 97 to 98 |
| CCCCOc1ccc(C=C2C(=O)C3(C)CCC2C3(C)C)cc1 (stereo not given) | 62 |
| CC(C)c1ccc(C2NCCc3c2[nH]c2ccccc32)cc1 (stereo not given) | 146 |
| O=C1CCN(Cc2ccccc2OC(F)F)CC1C(c1ccc(F)cc1)c1ccc(F)cc1 (stereo not given) | 83 to 84 |
| O=C(O)[C@]1(c2ccc(Br)cc2)CC1(c1ccccc1)c1ccccc1 | 180 to 182 |
| Cc1cc(F)ccc1NC(=O)CCC#Cc1ccccn1 | 110 to 114 |
| Nc1ncc(F)cc1I | 70 |
| Cc1cc(C)cc(NC(=O)Cc2ccc(OC3(C(=O)N[C@@H](C)C(=O)O)CCCC3)cc2)c1 | 90 to 91 |
| CCOC(=O)C(Cc1ccc(OC)cc1SCc1ccc(OC)cc1)(CC(C)C)C(=O)OCC | 59 to 60.5 |
| COc1ccc(C(=O)Nc2ccccc2)cc1Nc1ccc(F)cc1 | 178 to 180 |
| CC(C)(C)OC(=O)C[C@H](NC(=O)CNC(=O)c1csc(NC(=O)NCc2ccccn2)n1)C(=O)NCc1ccccn1 | 112 |
| CC(C)OC(=O)c1nc2ccc(OCCCN3CCC(OC(c4ccccc4)c4ccccc4)CC3)nn2n1 | 126 to 127 |
| Nc1nc(-n2cc(C(=O)O)c(=O)c3cc(F)c(F)c(Br)c32)c(F)cc1F | 272 to 278 |
| C=CC=CCC1=C(C)C(OC(=O)C2C(C=C(C)C)C2(C)C)CC1=O (stereo not given) | 57 |
| CCOC1(C)Oc2cccc(OC(=O)NC)c2O1 (stereo not given) | 97 to 98.5 |
| NC1CCC(CCN2CCN(c3ccccc3)CC2)CC1 (stereo not given) | 65 to 70 |
| CN1Cc2c(C#CCO)ncn2-c2cccc(Cl)c2C1=O | 250 to 252 |

| SMILES | melting point [°C] |
| --- | --- |
| CCNC(=O)c1cc(N)ccc1Oc1cncc(Cl)c1 | 126 to 128 |
| COc1ccc2c(c1)CCC1=C2CCC2(CC(C)C)C(=O)CCC12 (stereo not given) | 117 to 119 |
| CN(C)c1ccc(C(=O)CCCC2CCN(Cc3ccccc3)CC2)cc1 | 83 to 85 |
| CN1C(=O)N(c2ccccc2)C(=O)C1=NC(Cl)C(Cl)(Cl)Cl (stereo not given) | 158 to 160 |
| CCOc1ccccc1C(=O)Nc1ccc(C(=O)N2CCC(F)(F)/C(=C\C(=O)N3CCOCC3)c3ccccc32)cc1 | 144 to 147 |
| CCCn1nc(C(C)C)c(C(=O)OCc2cccc(C(=O)c3ccccc3)c2)c1Cc1ccc(-c2ccccc2S(=O)(=O)NC(C)(C)C)c(F)c1 | 35 to 45 |
| CCCCc1oc2ccc(C(=O)OC)cc2c1C(=O)c1ccc(O)cc1 | 152 to 153 |
| CN(C)c1ccc(NC(=O)N(CC2CCCCC2)C[C@H]2CC[C@H](CN(CC3CCCCC3)C(=O)Nc3ccc(N(C)C)cc3)CC2)cc1 | 210 to 212 |
| CN1C(=O)CC[C@]2(C)c3ccc(-c4ccc(O)c(C=O)c4)cc3CC[C@@H]12 | 184 to 187 |
| CCOC(=O)c1cc2n(c1)C(C)Nc1ccccc1-2 (stereo not given) | 102 to 103 |
| Cc1nc(NCCc2ccccc2)sc1-c1ccnc(Nc2ccc(N3CCN(Cc4ccccc4)CC3)cc2)n1 | 191 to 192 |
| c1ccc(CCN2CCN(c3n[nH]c4ccccc34)CC2)cc1 | 118 to 120 |
| COc1ccc(OC)c2c1C[C@@H](O)[C@H](N1CCN(c3ccccc3C)CC1)C2 (relative stereo) | 217 to 219 |
| CN1C(=O)[C@H](NC(=O)Cc2ccc(C(F)(F)F)cc2)N=C(c2ccccc2)c2ccccc21 | 224 to 226 |
| CCOC(=O)CCc1cc(O)nn1Cc1ccccc1 | 128 to 129 |
| O=C1c2ccsc2S(=O)(=O)CCN1CCCCN1CCN(c2ncccn2)CC1 | 161 to 163 |
| CC(=O)Oc1cc(N(C)C2CCCCC2)c2ccccc2c1OC(C)=O | 103 to 105 |
| CSc1ccc(-c2c(C)n[nH]c(=O)c2-c2ncc(Cl)cc2Cl)nc1 | 229 |
| O=c1[nH]c(CO)nc2nc(O)cnc12 | > 300 |
| COc1ccc(C(=O)c2c(-c3ccc(OC)cc3)sc3ccccc23)cc1 | 124 to 126 |
| Nc1cccc(C#Cc2ccc(OC3CN4CCC3CC4)nn2)c1 (stereo not given) | 152 to 158 |
| CCn1cc(C(=O)O)c(=O)c2cc(F)c(-c3ccnc(N)n3)cc21 | 245 to 247 |
| CN(C(CCn1c(=O)cc(Cl)[nH]c1=O)C(=O)NO)S(=O)(=O)c1ccc(Oc2ccc(Cl)cc2)cc1 (stereo not given) | 171 to 173 |
| CCOC(=O)c1cn(C2CC2)c2nc(S(=O)(=O)c3ccc(C)cc3)c(F)cc2c1=O | 216 to 218 |
| CC(C)(C)CC(C)(C)c1cc(-n2nc3ccc(Sc4ccccc4)cc3n2)c(O)c(C(C)(C)c2ccccc2)c1 | 124 to 125 |
